From patent US7807678B2, “Peptidomimetics of biologically active metallopeptides” (Palatin Technologies, Inc., priority 2001, dated 2010)
Where two headings read alike, the source gives them in different places. Non-standard residues stand in square brackets, D forms with d. Residues, ends and D or L forms follow the SMILES beside them. *: point of attachment. Hyp = O=C(O)[C@@H]1C[C@@H](O)CN1; Nle = CCCC[C@H](N)C(=O)O; NH(CH2)3NH2 = NCCCN*; Bn = c1ccc(C*)cc1

Key:
MC3-R = MC3-R (Homo sapiens, UniProt P41968); assay: Competitive inhibition binding assay, 125I-NDP-α-MSH, MC3-R; set-up: expressed in transfected cells; details: 1 μM compound; inhibition of 125I-NDP-α-MSH binding; mean of triplicates; results less than 0% reported as 0%
MC3-R, sequence (P41968 whole entry): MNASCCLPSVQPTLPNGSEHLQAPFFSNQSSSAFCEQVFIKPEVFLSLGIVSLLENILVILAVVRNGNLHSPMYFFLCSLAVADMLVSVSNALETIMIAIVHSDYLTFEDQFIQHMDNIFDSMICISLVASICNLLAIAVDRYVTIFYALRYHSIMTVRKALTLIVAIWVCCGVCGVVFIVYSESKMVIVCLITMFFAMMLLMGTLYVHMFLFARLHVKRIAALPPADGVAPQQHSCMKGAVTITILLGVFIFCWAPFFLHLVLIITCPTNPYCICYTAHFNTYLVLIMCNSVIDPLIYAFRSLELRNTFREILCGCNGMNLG
Summary of the method: (§1)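 Membranes from hMC3-R, hMC4-R or hMC5-R cells, or B-16 mouse melanoma cells (MC1-R), were incubated 90 min at room temperature with 0.4 nM 125I-NDP-α-MSH in HEPES pH 7.2 with Mg2+/Ca2+/K+, and test compound generally at 1 μM. Filter-bound radioactivity was gamma counted. Specific binding was defined with 1 μM α-MSH; triplicate means.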

MC5-R = MC5-R (Homo sapiens, UniProt P33032); assay: Competitive inhibition binding assay, 125I-NDP-α-MSH, MC5-R; set-up: expressed in transfected cells; details: 1 μM compound; inhibition of 125I-NDP-α-MSH binding; mean of triplicates; results less than 0% reported as 0%
MC5-R, sequence (P33032 whole entry): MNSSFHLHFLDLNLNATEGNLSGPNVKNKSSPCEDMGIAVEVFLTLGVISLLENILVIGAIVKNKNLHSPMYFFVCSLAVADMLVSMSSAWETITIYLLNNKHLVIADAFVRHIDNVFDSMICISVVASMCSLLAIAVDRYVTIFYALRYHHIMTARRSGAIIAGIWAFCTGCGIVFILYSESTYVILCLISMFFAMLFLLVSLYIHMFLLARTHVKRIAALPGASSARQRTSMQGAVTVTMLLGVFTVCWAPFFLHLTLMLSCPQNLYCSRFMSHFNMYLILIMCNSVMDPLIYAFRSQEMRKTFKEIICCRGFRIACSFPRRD
Summary of the method: as §1

MC5-R (HEK-293 cells) = molecular target: T1, MC5-R (HEK-293 cells) (Homo sapiens, UniProt P33032); assay: cAMP assay for agonist/antagonist status, MC5-R; format: cell-based
T1 construct: expressed in transfected cells; host or cells: HEK-293
T1 sequence (P33032 whole entry): as above
Description: (§2) The Ki (nM) of certain peptidomimetics were determined, as was the agonist/antagonist status with respect to MC4-R, Functional evaluation of compounds at melanocortin receptors was performed by measuring the accumulation of intracellular cAMP in HEK-293 cells expressing MC3-R, MC4-R or MC5-R, and in B-16 mouse melanoma cells (containing MC1-R). Antagonistic activity was determined by measuring the inhibition of α-MSH-induced cAMP levels following exposure to the compounds. Cells, suspended in Earle's Balanced Salt Solution containing 10 mM HEPES, pH 7.5, 5 mM MgCl2, 1 mM glutamine, 0.1% albumin and 0.6 mM 3-isobutyl-1-methyl-xanthine, a phosphodiesterase inhibitor, were plated in 96 well plates at a density of 0.5×10^5 cells per well. Cells were incubated with the test compounds in the presence or absence of α-MSH for 1 hour at 37° C. cAMP levels were measured by EIA (Amersham) in the cell lysates. Data analysis and EC50 values were determined using nonlinear regression analysis with Prism Graph-Pad software.

MC4-R (HEK-293 cells) = molecular target: T2, MC4-R (HEK-293 cells) (Homo sapiens, UniProt P32245); assay: cAMP assay for agonist/antagonist status, MC4-R; format: cell-based
T2 construct: expressed in transfected cells; host or cells: HEK-293
T2 sequence (P32245 whole entry): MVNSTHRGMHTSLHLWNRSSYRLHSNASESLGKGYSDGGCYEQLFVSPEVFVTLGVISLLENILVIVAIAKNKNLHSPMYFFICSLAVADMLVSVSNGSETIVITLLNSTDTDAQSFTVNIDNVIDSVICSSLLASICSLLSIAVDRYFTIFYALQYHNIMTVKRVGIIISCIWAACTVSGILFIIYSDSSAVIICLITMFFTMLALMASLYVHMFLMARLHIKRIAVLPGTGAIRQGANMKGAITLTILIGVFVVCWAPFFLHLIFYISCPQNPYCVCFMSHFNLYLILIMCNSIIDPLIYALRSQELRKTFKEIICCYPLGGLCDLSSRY
Description: as §2

[1] = molecular target: T3, MC1-R (B-16 mouse melanoma cells) (Mus musculus, UniProt Q01727); assay: cAMP assay for agonist/antagonist status, MC1-R; format: cell-based
T3 construct: B-16 mouse melanoma cells (containing MC1-R); endogenous in cells; host or cells: B-16 mouse melanoma cells
T3 sequence (Q01727 whole entry): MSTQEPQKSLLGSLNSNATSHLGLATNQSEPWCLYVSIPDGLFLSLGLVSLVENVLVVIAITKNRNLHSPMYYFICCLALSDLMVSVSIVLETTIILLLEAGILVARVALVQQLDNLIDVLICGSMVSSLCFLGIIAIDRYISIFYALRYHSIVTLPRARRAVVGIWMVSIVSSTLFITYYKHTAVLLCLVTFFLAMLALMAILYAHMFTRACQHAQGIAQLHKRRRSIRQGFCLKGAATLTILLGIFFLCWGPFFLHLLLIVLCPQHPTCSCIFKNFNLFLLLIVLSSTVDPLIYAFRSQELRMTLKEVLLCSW
Description: as §2

MC4-R = MC4-R (Homo sapiens, UniProt P32245); assay: Competitive inhibition binding assay, 125I-NDP-α-MSH, MC4-R; set-up: expressed in transfected cells; details: 1 μM compound; inhibition of 125I-NDP-α-MSH binding; mean of triplicates; results less than 0% reported as 0%
MC4-R, sequence (P32245 whole entry): as the sequence (P32245 whole entry) above
Summary of the method: as §1

[2] = molecular target: T3, MC1-R (B-16 mouse melanoma cells); assay: Competitive inhibition binding assay, 125I-NDP-α-MSH, MC1-R; details: 1 μM compound; inhibition of 125I-NDP-α-MSH binding; mean of triplicates; results less than 0% reported as 0%
Summary of the method: as §1

SMILES	Inhibition at 1 μM MC3-R (MC3-R) [%]	Inhibition at 1 μM MC5-R (MC5-R) [%]	agonist/antagonist status as to MC5-R (MC5-R (HEK-293 cells))	agonist/antagonist status as to MC4-R (MC4-R (HEK-293 cells))	agonist/antagonist status as to MC1-R [1]	Inhibition at 1 μM MC4-R (MC4-R) [%]	Inhibition at 1 μM MC1-R [2] [%]	agonist/antagonist status as to MC1-R ([1]; listed as Compound 1)
NCCCC[C@H]1C(=O)N(CCc2ccc3ccccc3c2)CCN1C(=O)[C@@H](Cc1ccc(Cl)cc1Cl)NC(=O)[C@@H](N)COCc1ccccc1 [Example 22]	47	76	agonist	agonist	agonist	98	40	–
NCCCC[C@H]1C(=O)N(CCc2ccc3ccccc3c2)CCN1C(=O)[C@@H](Cc1ccc(Cl)cc1Cl)NC(=O)[C@@H]1Cc2ccccc2CN1 [Example 23]	62	80	agonist	agonist	agonist	100	63	–
C[C@@H](OCc1ccccc1)[C@H](N)C(=O)N[C@H](Cc1ccc(Cl)cc1Cl)C(=O)N1CCN(CCc2ccc3ccccc3c2)C(=O)[C@@H]1CCCCN [Example 24]	34	78	agonist	agonist	agonist	99	30	–
NCCCC[C@H]1C(=O)N(CCc2ccc3ccccc3c2)CCN1C(=O)[C@@H](Cc1ccc(Cl)cc1Cl)NC(=O)[C@H]1CC[C@@H](c2ccccc2)N1 [Example 27]	9	46	agonist	agonist	agonist	71	0	–
NCCCC[C@H]1C(=O)N(CCc2ccc3ccccc3c2)CCN1C(=O)[C@@H](Cc1ccc(Cl)cc1Cl)NC(=O)C/C=C/c1ccccc1 [Example 33]	25	61	agonist	antagonist	antagonist	91	14	–
NCCCC[C@H]1C(=O)N(CCc2ccc3ccccc3c2)CCN1C(=O)[C@@H](Cc1ccc(Cl)cc1Cl)NC(=O)c1ccc(Oc2ccccc2)cc1 [Example 37]	51	51	agonist	antagonist	antagonist	99	35	–
NCCCC[C@H]1C(=O)N(CCc2ccc3ccccc3c2)CCN1C(=O)[C@@H](Cc1ccc(Cl)cc1Cl)NC(=O)c1cccc(Oc2ccccc2)c1 [Example 38]	21	61	agonist	antagonist	antagonist	97	3	–
NCCCC[C@H]1C(=O)N(CCc2ccc3ccccc3c2)CCN1C(=O)[C@@H](Cc1ccc(Cl)cc1Cl)NCCOCc1ccccc1 [Example 40]	17	30	agonist	antagonist	antagonist	91	27	–
NCCCC[C@H]1C(=O)N(CCc2ccc3ccccc3c2)CCN1C(=O)[C@@H](Cc1ccc(Cl)cc1Cl)NCc1ccc2ccccc2c1 [Example 41]	4	2	agonist	antagonist	antagonist	84	4	–
NC(=O)NCCC[C@H]1C(=O)N(CCc2ccc3ccccc3c2)CCN1C(=O)[C@@H](Cc1ccc(Cl)cc1Cl)NC(=O)[C@@H](N)COCc1ccccc1 [Example 44]	43	66	agonist	agonist	agonist	94	8	–
N=C(N)NCCC[C@H]1C(=O)N(CCc2ccc3ccccc3c2)CCN1C(=O)[C@@H](Cc1ccc(Cl)cc1Cl)NC(=O)[C@@H](N)COCc1ccccc1 [Example 53]	93	96	agonist	agonist	agonist	99	81	–

Continued, values first:

Inhibition at 1 μM MC3-R (MC3-R) [%]	Inhibition at 1 μM MC5-R (MC5-R) [%]	agonist/antagonist status as to MC5-R (MC5-R (HEK-293 cells))	agonist/antagonist status as to MC4-R (MC4-R (HEK-293 cells))	agonist/antagonist status as to MC1-R [1]	Inhibition at 1 μM MC4-R (MC4-R) [%]	Inhibition at 1 μM MC1-R [2] [%]	agonist/antagonist status as to MC1-R ([1]; listed as Compound 1)	SMILES
61	83	agonist	agonist	agonist	100	21	–	NCCCC[C@H]1C(=O)N(CCc2ccc3ccccc3c2)CCN1C(=O)[C@@H](Cc1ccc(Cl)cc1Cl)NC(=O)[C@@H]1C[C@@H](OCc2ccccc2)CN1 [Example 25]
22	34	agonist	antagonist	agonist	92	72	–	NCCCC[C@H]1C(=O)N(CCc2ccc3ccccc3c2)CCN1C(=O)[C@@H](Cc1ccc(Cl)cc1Cl)NC(=O)CCc1ccccc1 [Example 36]
4	9	agonist	antagonist	antagonist	85	0	–	NCCCC[C@H]1C(=O)N(CCc2ccc3ccccc3c2)CCN1C(=O)[C@@H](Cc1ccc(Cl)cc1Cl)NCc1ccc(-c2ccccc2)cc1 [Example 39]
47	35	agonist	agonist	antagonist	95	22	–	N=C(N)NCCC[C@H]1C(=O)N(CCc2ccc3ccccc3c2)CCN1C(=O)[C@H](N)Cc1ccc(Cl)cc1Cl [Example 51]
25	63	agonist	agonist	agonist	94	36	–	NCCC[C@H]1C(=O)N(CCc2ccc3ccccc3c2)CCN1C(=O)[C@@H](Cc1ccc(Cl)cc1Cl)NC(=O)[C@@H](N)COCc1ccccc1 [Example 52]
13	25	–	–	agonist	8	91	full agonistic activity	CCCC[C@H](NC(C)=O)C(=O)N[C@@H](C)C(=O)N[C@@H](Cc1cnc[nH]1)C(=O)N[C@H](Cc1ccccc1)C(=O)N1C[C@H](OCc2ccccc2)C[C@H]1C(=O)NCCCN [Example 133] (Ac-[Nle]AH[dF][Hyp](Bn)-{NH(CH2)3NH2})
